Measurements from US20160101125A1, “COMPOSITIONS FOR USE IN CARTILAGE BREAKDOWN” (NESTEC S.A., priority 2013, published 2016).

How the values were obtained:
Assay type in all cases: cell-based, Bos Taurus
Settings in all cases: 1.5 μM, 3 days
MMP-13 mRNA = MMP-13 mRNA expression in bovine primary chondrocytes in alginate beads (real-time PCR, relative to GAPDH)
COX-2 mRNA = COX-2 mRNA expression in bovine primary chondrocytes in alginate beads (real-time PCR, relative to GAPDH)
Procedure: The foot of a young cow was washed to remove soil. The skin was removed from the foot. The articulation was opened transversally. Intra articular ligaments were transected. The opened articulation was washed with phosphate buffered saline. With a scalpel blade, full thickness slices of cartilage were dissected out and collected in DMEM high glucose with 10 mM hepes and 1% Penicillin-Streptomycin. Slices of cartilage were washed in DMEM high glucose with 10 mM hepes and 1% Penicillin-Streptomycin.
Cartilage was then digested successively by 0.5 mg/ml of hyluronidase during 30 minutes, 1.0 mg/ml of pronase E during 60 minutes and 1.0 mg/ml of collagenase overnight under slow agitation. […]
Total RNA was isolated from pool of 40 beads and isolated using RNeasy kit from Qiagen. cDNA was obtained by reverse transcription of RNA with the Primescript 1st strand cDNA Synthesis kit from Takara. mRNA expression of ADAMTS-5, COX-2, MMP-13 and GAPDH were quantified in real-time PCR (SYBR Green)
FIGS. 1 to 3 show mRNA expression of ADAMTS-5, COX-2 and MMP-13 normalized by GAPDH mRNA expression after 3 days of culture. Data were expressed as fold change in gene expression compared to negative control (cells cultured in complete medium). Results were calculated according to the 2^−ΔΔCT method.
IL1a interleukin-1 alpha 10 ng/ml Data were expressed as median±S.E. Median (2 experiments of 3 replicates each). […]

ADAMTS-5 mRNA = ADAMTS-5 mRNA expression in bovine primary chondrocytes in alginate beads (real-time PCR, relative to GAPDH)
[1] = absence of IL1a (normal conditions)
[2] = presence of IL1a 10 ng/ml (disease conditions)

With `O=c1c(O)c(-c2ccc(O)c(O)c2)oc2cc(O)cc(O)c12` [QRC, quercetin] the “MMP-13 mRNA expression relative to GAPDH” value (MMP-13 mRNA; [1]) was “decrease”, the “MMP-13 mRNA expression relative to GAPDH” value (MMP-13 mRNA; [2]) was “decrease” and the “COX-2 mRNA expression relative to GAPDH” value (COX-2 mRNA; [1]) was “reduce”. The “COX-2 mRNA expression relative to GAPDH” value (COX-2 mRNA; [2]) was “decrease”, the “ADAMTS-5 mRNA expression relative to GAPDH” value (ADAMTS-5 mRNA; [1]) was “decrease” and the “ADAMTS-5 mRNA expression relative to GAPDH” value (ADAMTS-5 mRNA; [2]) was “decrease”.
